Experiments:
Assay type in all cases: cell-based, human
[1] = system: A549 cells; test: [3H]-thymidine incorporation (DNA synthesis) in A549 cells; conditions: 300 nM
Protocol: Cells were pulse-labeled with [^3 H]-thymidine for 5 hours at intervals over the next five days. Cells were lysed and [^3 H]-thymidine incorporation (indicative of DNA synthesis) was determined by liquid scintillation counting.
At timed intervals during the next 5 days, cells were pulse-labeled with [^3 H]-thymidine (0.5 μCi/ml) for 5 hours. […] The results given are the mean of three independent experiments.

[2] = system: serum/glucocorticoid inducible protein kinase (sgk) mRNA; test: Northern analysis of sgk mRNA; conditions: 24 hours
Protocol: The cells were harvested, and total RNA was extracted with TRIzol® Reagent according to the methods of the manufacturer. Total RNA (20 μg) was fractionated on 1% agarose gels containing formaldehyde and transferred to DURLON-UV nylon membranes (Stratagene). Following UV cross-linking, the filters were hybridized with a [α^32 P]probe for human PP5. The human PP5 cDNA probe was generated from the full length coding region of PP5 and [α^32 P]-dATP was labeled with DECAprime® DNA Labeling Kit according to the manufacturer's protocol. […] Quantification of hybridization signals was achieved by analysis of the scanned autoradiograms using the NIH Image program (ImagePC).
The antiproliferative effect of dexamethasone correlates with the presence of wild type p53 and the expression of p21^Waf1/Cip1 mRNA. Referring to FIGS. 1A-1C, the effect of dexamethasone on cell proliferation in p53-defective T-24 human bladder carcinoma, p53-null TR9 human fibroblasts (Webster et al. 1993; Maiyar et al. 1996), and p53 wild-type A549 human lung carcinoma cells was determined by treating cells in log-phase growth with a single dose of 100 nM dexamethasone and counting the number of cells in treated (.cndot.) and untreated (.box-solid.) cultures for six consecutive days following treatment. […] After 24 hours total mRNA was prepared and analyzed for p21 and sgk mRNA levels by Northern analysis. […]

[3] = system: p53 phosphorylation; test: Immunoprecipitation of [32P]-labelled p53 from A549 cells; conditions: six hours, 100 nM dexamethasone or 300 nM ISIS 15534
Protocol: Immunoprecipitation of p53 protein. A549 cells were cultured in 60 mm dishes until the cell cultures were about 80% confluent, washed with PBS and placed for 1 hour in phosphate-free DMEM containing 5% fetal bovine serum. The cell cultures were then treated with 100 nM dexamethasone or 300 nM ISIS 15521 or ISIS 15534 as described previously (Zuo et al. 1998), three dishes per group, and [^32 P] phosphate (0.2 mCi/ml) was added to the media. Six hours after treatment, the cells were collected, washed with ice-cold PBS and stored at -80° C. prior to analysis. […]
Referring to FIGS. 2A-2C, Northern blot analysis of 549 cells following treatment with dexamethasone and/or ISIS 15534 is shown. […] After 24 hours, 20 μg of total RNA was prepared and analyzed for serine/threonine protein phosphatase 5 (PP5), p21^Waf1/Cip1 (p21), and serum/glucocorticoid inducible kinase (sgk) mRNA levels. […] Six hours later, the protein extracts were prepared, and changes in p53 phosphorylation were determined by immunoprecipitation, SDS-PAGE analysis, and visualized by autoradiography (Control, p53 from control cells; ISIS 15534, p53 from cells treated with 500 nM ISIS 15534; Dex, p53 from cells treated with 100 nM dexamethasone).Referring to FIG. 2E, a Western analysis of an Immobilon membrane produced by the transfer of protein from the SDS-PAGE gel and detected with an anti-p53 mouse monoclonal antibody is shown.

ISIS 15534: chimeric PP5 antisense oligonucleotide, P=O wings, P=S deoxy gap; GGGCCCTATTGCTTGAGTGG, SEQ ID NO: 12 (sugars by position and backbone not given here; chimeric, phosphodiester wings, phosphorothioate deoxy gap)
Decrease in [3H]-thymidine incorporation compared to control ([1]; day 2): approximately 85%
Decrease in [3H]-thymidine incorporation compared to control ([1]; day 3): ~88%
Decrease in [3H]-thymidine incorporation compared to control ([1]; day 4): ~62%
[3H]-thymidine incorporation relative to untreated cells ([1]; day 5): approximately equivalent in treated and untreated cells

C[C@@H]1C[C@H]2[C@@H]3CCC4=CC(=O)C=C[C@]4(C)[C@@]3(F)[C@@H](O)C[C@]2(C)[C@@]1(O)C(=O)CO [dexamethasone, reference compound]
Expression of sgk ([2]; A549 cells, dexamethasone 0-100 nM): dose-dependent increase
Expression of sgk ([2]; all three cell lines (A549, T-24, TR9), 100 nM): induced the expression
Phosphorylation of p53 [3]: hyperphosphorylation of p53

Reference: patent US6235891A, “Glucocorticoid receptor agonist and decreased PP5” (South Alabama Medical Science Foundation, priority 1999, dated 2001)
